What all share (format): cell-based
In experiment [1] the target is protein kinases (human kinome) (Homo sapiens, UniProt Q9NSY1). Particulars: BMP2K Q9NSY1.
Experiment [2] has as its target protein kinases (human kinome) (Homo sapiens, UniProt Q9NYL2). Particulars: for logFC MAP3K20: MAP3K20 Q9NYL2.
For experiment [3], the target named is protein kinases (human kinome) (Homo sapiens, UniProt Q9Y4K4). Particulars: MAP4K5 (Q9Y4K4).
The target of experiment [4] is T1, protein kinases (human kinome) (Homo sapiens, UniProt P29320).
T1 sequence (P29320 21-983): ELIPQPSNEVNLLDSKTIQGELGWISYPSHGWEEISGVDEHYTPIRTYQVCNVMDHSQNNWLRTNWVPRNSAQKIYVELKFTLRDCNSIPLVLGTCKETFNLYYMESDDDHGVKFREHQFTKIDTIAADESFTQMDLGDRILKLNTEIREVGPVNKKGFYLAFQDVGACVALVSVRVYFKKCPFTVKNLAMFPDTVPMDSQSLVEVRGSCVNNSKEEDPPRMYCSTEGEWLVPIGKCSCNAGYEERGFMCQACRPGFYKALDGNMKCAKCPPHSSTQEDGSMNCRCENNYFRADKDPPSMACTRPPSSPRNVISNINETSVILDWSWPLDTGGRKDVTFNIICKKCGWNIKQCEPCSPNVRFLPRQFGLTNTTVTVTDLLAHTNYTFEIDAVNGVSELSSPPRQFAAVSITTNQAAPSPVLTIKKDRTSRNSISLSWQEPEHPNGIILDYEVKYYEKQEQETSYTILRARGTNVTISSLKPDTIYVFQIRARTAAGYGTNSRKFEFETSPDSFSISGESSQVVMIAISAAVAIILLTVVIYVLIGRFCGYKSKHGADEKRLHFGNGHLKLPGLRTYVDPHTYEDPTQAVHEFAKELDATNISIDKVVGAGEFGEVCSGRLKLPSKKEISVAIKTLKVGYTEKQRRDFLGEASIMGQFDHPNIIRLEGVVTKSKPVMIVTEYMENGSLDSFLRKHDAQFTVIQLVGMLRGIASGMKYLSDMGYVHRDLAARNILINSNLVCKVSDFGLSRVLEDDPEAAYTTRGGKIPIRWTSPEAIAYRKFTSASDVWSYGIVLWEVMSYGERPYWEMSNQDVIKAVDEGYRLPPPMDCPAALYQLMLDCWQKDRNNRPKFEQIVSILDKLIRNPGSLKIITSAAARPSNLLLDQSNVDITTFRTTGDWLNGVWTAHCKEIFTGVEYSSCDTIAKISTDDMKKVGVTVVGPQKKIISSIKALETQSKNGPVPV

Experiment [5] has as its target protein kinases (human kinome) (Homo sapiens, UniProt P53350).
Experiment [6] deals with protein kinases (human kinome) (Homo sapiens, UniProt Q16659).
The target of experiment [7] is protein kinases (human kinome) (Homo sapiens, UniProt Q9BYT3). Particulars: STK33 (Q9BYT3-1).
The mark [8] stands for this setting: MAPK6 (Q16659), experiment wp131.
[9] abbreviates: experiment wp146, direction down.

Where two headings read alike, the source gives them in different places.

protein kinases (human kinome) (Homo sapiens, UniProt Q9BYT3), sequence (Q9BYT3 whole entry): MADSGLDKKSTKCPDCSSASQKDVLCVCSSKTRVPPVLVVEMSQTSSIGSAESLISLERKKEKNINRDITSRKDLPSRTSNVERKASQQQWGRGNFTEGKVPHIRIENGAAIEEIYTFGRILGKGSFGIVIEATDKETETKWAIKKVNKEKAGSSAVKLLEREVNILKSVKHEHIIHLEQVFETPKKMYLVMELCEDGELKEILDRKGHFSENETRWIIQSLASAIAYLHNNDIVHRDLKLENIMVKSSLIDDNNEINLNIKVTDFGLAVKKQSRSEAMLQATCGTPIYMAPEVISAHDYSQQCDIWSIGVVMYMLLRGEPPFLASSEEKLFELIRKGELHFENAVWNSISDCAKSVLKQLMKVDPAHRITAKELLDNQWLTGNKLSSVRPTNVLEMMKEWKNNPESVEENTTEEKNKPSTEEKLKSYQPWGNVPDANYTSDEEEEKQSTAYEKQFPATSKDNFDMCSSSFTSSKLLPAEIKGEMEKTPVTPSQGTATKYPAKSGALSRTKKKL
protein kinases (human kinome) (Homo sapiens, UniProt Q16659), sequence (Q16659 whole entry): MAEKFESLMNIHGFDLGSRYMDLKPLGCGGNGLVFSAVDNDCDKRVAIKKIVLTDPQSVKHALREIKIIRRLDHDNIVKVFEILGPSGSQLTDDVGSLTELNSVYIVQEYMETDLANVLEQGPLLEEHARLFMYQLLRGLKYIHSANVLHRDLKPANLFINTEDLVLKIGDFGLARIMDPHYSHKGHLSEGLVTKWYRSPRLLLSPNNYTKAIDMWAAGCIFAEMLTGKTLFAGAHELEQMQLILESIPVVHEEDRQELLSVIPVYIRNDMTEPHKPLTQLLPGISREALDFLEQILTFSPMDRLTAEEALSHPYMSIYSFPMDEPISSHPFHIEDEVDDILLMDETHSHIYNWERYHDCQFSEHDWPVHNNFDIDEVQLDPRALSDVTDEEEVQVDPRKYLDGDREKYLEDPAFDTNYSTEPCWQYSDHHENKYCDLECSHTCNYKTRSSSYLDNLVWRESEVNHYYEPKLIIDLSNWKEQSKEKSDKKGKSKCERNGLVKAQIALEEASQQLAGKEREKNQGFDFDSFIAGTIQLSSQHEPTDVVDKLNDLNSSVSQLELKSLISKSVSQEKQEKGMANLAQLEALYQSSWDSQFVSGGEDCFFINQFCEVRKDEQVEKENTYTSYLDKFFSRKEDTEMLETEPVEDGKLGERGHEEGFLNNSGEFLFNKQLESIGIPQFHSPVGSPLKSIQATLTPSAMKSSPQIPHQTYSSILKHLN
protein kinases (human kinome) (Homo sapiens, UniProt Q9NSY1), sequence (Q9NSY1 whole entry): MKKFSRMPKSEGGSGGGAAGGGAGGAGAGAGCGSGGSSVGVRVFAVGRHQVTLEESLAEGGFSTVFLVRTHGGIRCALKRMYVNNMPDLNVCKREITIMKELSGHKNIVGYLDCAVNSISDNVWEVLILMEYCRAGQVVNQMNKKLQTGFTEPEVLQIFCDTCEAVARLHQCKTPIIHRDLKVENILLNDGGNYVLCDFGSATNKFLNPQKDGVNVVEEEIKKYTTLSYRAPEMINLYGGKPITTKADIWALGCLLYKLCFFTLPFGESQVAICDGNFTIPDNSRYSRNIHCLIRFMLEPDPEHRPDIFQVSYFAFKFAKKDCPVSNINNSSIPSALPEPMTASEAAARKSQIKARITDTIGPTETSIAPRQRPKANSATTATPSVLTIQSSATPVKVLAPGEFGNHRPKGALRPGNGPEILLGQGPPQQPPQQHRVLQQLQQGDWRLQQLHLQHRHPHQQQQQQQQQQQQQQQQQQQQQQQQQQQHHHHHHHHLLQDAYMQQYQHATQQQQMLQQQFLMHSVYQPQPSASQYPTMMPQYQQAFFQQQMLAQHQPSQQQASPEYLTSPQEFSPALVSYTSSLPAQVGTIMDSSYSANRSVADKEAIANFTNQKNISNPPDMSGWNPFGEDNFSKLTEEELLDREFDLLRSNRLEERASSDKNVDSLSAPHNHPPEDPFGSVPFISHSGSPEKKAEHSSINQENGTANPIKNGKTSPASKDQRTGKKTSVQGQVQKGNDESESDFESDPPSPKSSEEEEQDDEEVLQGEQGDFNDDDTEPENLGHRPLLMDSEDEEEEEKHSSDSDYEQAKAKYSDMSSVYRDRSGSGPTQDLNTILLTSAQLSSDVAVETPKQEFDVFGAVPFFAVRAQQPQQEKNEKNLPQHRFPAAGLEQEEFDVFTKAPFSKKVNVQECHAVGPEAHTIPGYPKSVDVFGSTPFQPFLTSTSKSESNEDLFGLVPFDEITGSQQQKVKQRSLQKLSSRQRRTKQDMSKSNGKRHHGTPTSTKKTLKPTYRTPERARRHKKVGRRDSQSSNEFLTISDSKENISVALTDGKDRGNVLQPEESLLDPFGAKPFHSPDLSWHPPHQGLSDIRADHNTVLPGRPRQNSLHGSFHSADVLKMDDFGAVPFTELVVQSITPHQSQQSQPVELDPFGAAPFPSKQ
protein kinases (human kinome) (Homo sapiens, UniProt Q9NYL2), sequence (Q9NYL2 whole entry): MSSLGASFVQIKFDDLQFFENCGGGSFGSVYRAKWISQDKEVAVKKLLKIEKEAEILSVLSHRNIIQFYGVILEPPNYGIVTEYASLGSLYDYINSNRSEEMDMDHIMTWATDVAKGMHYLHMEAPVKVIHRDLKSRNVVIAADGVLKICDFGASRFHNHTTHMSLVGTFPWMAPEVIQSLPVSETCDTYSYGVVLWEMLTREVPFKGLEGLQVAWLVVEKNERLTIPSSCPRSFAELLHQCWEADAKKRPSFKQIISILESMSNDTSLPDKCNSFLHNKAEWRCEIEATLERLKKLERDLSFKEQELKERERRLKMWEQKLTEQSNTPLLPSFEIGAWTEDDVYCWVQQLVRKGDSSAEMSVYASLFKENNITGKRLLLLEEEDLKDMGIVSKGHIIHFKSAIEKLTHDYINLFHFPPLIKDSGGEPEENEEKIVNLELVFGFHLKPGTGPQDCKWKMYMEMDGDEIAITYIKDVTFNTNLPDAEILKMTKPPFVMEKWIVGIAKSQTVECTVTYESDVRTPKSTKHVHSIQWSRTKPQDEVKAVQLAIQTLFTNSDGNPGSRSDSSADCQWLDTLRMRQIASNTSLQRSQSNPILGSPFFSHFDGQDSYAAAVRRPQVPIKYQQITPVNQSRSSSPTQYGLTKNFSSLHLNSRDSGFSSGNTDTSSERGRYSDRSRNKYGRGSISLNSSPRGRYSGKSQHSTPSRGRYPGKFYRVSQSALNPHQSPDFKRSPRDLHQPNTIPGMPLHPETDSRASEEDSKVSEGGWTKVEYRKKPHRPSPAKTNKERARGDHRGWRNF
protein kinases (human kinome) (Homo sapiens, UniProt Q9Y4K4), sequence (Q9Y4K4 whole entry): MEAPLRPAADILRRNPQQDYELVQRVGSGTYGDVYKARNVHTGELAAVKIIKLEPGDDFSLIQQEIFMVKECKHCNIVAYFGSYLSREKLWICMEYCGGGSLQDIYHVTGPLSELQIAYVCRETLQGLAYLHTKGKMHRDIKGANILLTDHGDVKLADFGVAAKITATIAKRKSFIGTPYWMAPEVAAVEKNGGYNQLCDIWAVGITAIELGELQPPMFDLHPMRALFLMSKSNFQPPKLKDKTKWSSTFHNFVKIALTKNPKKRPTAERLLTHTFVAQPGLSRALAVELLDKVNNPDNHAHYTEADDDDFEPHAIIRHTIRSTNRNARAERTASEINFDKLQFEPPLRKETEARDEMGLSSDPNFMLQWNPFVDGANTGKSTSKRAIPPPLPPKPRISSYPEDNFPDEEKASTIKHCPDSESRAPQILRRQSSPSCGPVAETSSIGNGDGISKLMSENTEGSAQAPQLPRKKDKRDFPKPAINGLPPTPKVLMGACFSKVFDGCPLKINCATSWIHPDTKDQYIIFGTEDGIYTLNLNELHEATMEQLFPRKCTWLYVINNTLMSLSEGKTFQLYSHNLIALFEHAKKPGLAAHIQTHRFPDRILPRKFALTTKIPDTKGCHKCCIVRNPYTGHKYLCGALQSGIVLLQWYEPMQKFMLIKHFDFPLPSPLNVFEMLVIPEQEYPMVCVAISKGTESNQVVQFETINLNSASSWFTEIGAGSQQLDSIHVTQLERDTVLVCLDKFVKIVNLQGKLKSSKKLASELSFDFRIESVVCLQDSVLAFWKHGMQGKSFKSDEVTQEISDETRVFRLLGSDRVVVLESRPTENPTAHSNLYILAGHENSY
protein kinases (human kinome) (Homo sapiens, UniProt P53350), sequence (P53350 whole entry): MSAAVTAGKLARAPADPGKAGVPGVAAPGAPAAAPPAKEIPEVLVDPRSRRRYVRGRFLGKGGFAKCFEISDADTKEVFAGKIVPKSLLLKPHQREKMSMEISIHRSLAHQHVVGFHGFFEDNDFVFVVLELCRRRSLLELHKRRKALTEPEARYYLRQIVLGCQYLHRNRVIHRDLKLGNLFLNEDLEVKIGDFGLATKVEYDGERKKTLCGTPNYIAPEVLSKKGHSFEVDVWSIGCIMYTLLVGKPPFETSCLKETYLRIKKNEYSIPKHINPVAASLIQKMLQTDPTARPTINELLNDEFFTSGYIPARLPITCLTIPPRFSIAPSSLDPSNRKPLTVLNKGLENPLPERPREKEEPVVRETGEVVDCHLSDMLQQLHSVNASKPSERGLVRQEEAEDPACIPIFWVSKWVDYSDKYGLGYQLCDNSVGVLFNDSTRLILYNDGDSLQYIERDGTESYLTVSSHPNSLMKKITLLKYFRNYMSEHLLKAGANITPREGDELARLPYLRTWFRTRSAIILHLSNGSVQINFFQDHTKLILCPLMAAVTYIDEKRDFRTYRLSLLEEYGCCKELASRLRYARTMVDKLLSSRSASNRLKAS

For `O=C(COc1cccc2c1C(=O)N(C1CCC(=O)NC1=O)C2=O)NCCCCCCCN1CCc2cc(Nc3ncc(C4CC4)c(NCCCNC(=O)C4CCC4)n3)ccc2C1` (centres unmarked) [BSJ.04.178], in experiment [1] (experiment wp134), the logFC is listed as −0.6929 and the “logFC BMP2K” value is recorded as −0.6929.

For the compound `CS(=O)(=O)Nc1cccc(-c2csc3cnc(Nc4ccc(N5CCN(CCCCCOc6cccc7c6C(=O)N(C6CCC(=O)NC6=O)C7=O)CC5)cc4)nc23)c1` (centres unmarked) [DB0614, N-(3-(2-((4-(4-(5-((2-(2,6-Dioxopiperidin-3-yl)-1,3-dioxoisoindolin-4-yl)oxy)pentyl)piperazin-1-yl)phenyl)amino)thieno[3,2-d]pyrimidin-7-yl)phenyl)methanesulfonamide], in experiment [1] (experiment wp045), the logFC is reported as −0.3909 and the “logFC BMP2K” value is −0.3909.

Consider `Cc1ccc(NC(=O)c2cccc(C(F)(F)F)c2)cc1N1Cc2cnc(Nc3ccc(N4CCN(CCCOc5cccc6c5C(=O)N(C5CCC(=O)NC5=O)C6=O)CC4)nc3)nc2N(C)C1=O` (centres unmarked) [DB0662], for which, in experiment [2] (experiment wp168), the “logFC MAP3K20” value was −0.737.

Take `Cc1ccc(NC(=O)c2cccc(C(F)(F)F)c2)cc1N1Cc2cnc(Nc3ccc(N4CCN(CCCCC(=O)N[C@H](C(=O)N5C[C@H](O)C[C@H]5C(=O)N[C@@H](C)c5ccc(-c6scnc6C)cc5)C(C)(C)C)CC4)nc3)nc2N(C)C1=O` [DB1113]: the “logFC MAP3K20” value in experiment [2] (experiment wp168) is listed as −1.38. Also, the logFC in experiment [3] (experiment wp168) is −1.754; in experiment [3] (experiment wp168, direction down), −1.754. The “logFC EPHA3” value in experiment [4] (Accession P29320, experiment wp168, direction down) is −0.4182; in experiment [4] (EPHA3 (P29320), experiment wp168), −0.4182.

Consider `CC(C)(C)c1nc(-c2cccc(NS(=O)(=O)c3c(F)cccc3F)c2F)c(-c2ccnc(NCCOCCNC(=O)CCOCCOCCNc3cccc4c3C(=O)N(C3CCC(=O)NC3=O)C4=O)n2)s1` (centres unmarked) [DD.03.106], for which the “logFC MAP3K20 (Q9NYL2)” value in experiment [2] (Experiment wp147, 2 uM) is given as −0.4079. In experiment [2] (experiment wp147, 2 uM), the “logFC MAP3K20” value was −0.4079. Moreover, the “logFC PLK1” value in experiment [5] (PLK1 P53350, experiment wp147, 4 uM) was −0.3533. For the same compound, in experiment [5] (PLK (P53350), experiment wp147, 4 uM), the logFC is on record as −0.3533.

Take `Cc1ncsc1-c1ccc([C@H](C)NC(=O)[C@@H]2C[C@@H](O)CN2C(=O)[C@@H](NC(=O)CCOCCOCCN2CCN(c3ccc(Nc4ncc(Cl)c(Nc5ccccc5S(=O)(=O)C(C)C)n4)cc3)CC2)C(C)(C)C)cc1` [FMF.06.098.1]: in experiment [6] (setting [8]), the logFC is recorded as −0.4123 and the “logFC MAPK6” value was −0.4123.

In the case of `C[C@@H]1C[C@@H](O)c2ncnc(N3CCN(C(=O)[C@H](CNCCCCCCCCCCc4cccc5c4C(=O)N(C4CCC(=O)NC4=O)C5=O)c4ccc(Cl)cc4)CC3)c21` (some centres unmarked) [INY.03.041.01], the logFC in experiment [6] (MAPK6 (Q16659), experiment wp118) was −0.6183. Also, in experiment [6] (MAPKG Q16659, experiment wp118), the “logFC MAPKG” value is reported as −0.6183.

With `Cc1cnc(Nc2ccc(N3CCN(CCOCCOCCNC(=O)COc4cccc5c4C(=O)N(C4CCC(=O)NC4=O)C5=O)CC3)cc2)nc1Nc1cccc(S(=O)(=O)NC(C)(C)C)c1` (centres unmarked) [JWG.118], in experiment [1] (experiment wp071), the logFC is on record as −0.3528 and the “logFC BMP2K” value is −0.3528.

As to `CNC(=O)c1ccccc1Nc1cc(Nc2ccc(N3CCN(CCOCCOCCNC(=O)CNc4cccc5c4C(=O)N(C4CCC(=O)NC4=O)C5=O)CC3)cc2OC)ncc1C(F)(F)F` (centres unmarked) [MFH.5.103.1], the logFC is on record as −2.784 in experiment [7] (experiment wp076) and −2.784 in experiment [7] (experiment wp076, direction down).

As for `CCc1cnn2c(N(Cc3ccc(N)nc3)C(=O)CCOCCOCCOCCNC(=O)CNc3cccc4c3C(=O)N(C3CCC(=O)NC3=O)C4=O)cc(N3CCCC[C@H]3CCO)nc12` (some centres unmarked) [MFH.5.115.2], in experiment [5] (PLK1 P53350, experiment wp076), the logFC is −0.56 and the “logFC PLK1” value is −0.56.

Regarding `O=C1CCC(N2C(=O)c3cccc(NCCCCCCCCN4CCC(NC(=O)c5[nH]ncc5NC(=O)c5c(Cl)cccc5Cl)CC4)c3C2=O)C(=O)N1` (centres unmarked) [MFH.5.126.1], in experiment [5] (PLK1 P53350, experiment wp076), the logFC is listed as −1.071 and the “logFC PLK1” value is recorded as −1.071.

Regarding `Cc1ccc(C(=O)Nc2ccc(CN3CCN(CCCOCCOCCOCCNC(=O)COc4cccc5c4C(=O)N(C4CCC(=O)NC4=O)C5=O)CC3)c(C(F)(F)F)c2)cc1C#Cc1cnc2cccnn12` (centres unmarked) [SB1.G.187], the logFC in experiment [3] (experiment wp105) is recorded as −0.3488; in experiment [3] (experiment wp105, direction down), −0.3488; in experiment [3] (experiment wp107) it was −0.4411; in experiment [3] (experiment wp107, direction down), −0.4411.

Take `Cn1c(=O)c(-c2c(Cl)cccc2Cl)cc2cnc(Nc3ccc(OCCNC(=O)CCCCCCNC(=O)COc4cccc5c4C(=O)N(C4CCC(=O)NC4=O)C5=O)cc3)nc21` (centres unmarked) [SB1.G.192.1]: the “logFC EPHA3” value in experiment [4] (Accession P29320, experiment wp071, direction down) is reported as −1.175; in experiment [4] (Accession P29320, experiment wp081, direction down) it was −1.027; in experiment [4] (Accession P29320, experiment wp131, direction down), −1.318; in experiment [4] (EPHA3 (P29320), experiment wp071), −1.175; in experiment [4] (EPHA3 (P29320), experiment wp081), −1.027; in experiment [4] (EPHA3 (P29320), experiment wp131), −1.318.

`CC(C)S(=O)(=O)c1ccccc1Nc1nc(Nc2ccc(N3CCN(CCOCCNC(=O)CNc4ccc5c(c4)C(=O)N(C4CCC(=O)NC4=O)C5=O)CC3)cc2)ncc1Cl` (centres unmarked) [SK.3.93]: in experiment [1] (experiment wp016), the logFC is reported as −0.4575 and the “logFC BMP2K” value is given as −0.4575.

As for `CC(C)S(=O)(=O)c1ccccc1Nc1nc(Nc2ccc(N3CCN(CCOCCOCCNC(=O)CNc4cccc5c4C(=O)N(C4CCC(=O)NC4=O)C5=O)CC3)cc2)ncc1Cl` (centres unmarked) [TL12.186], the logFC in experiment [6] (setting [8]) is reported as −1.488; in experiment [6] (MAPK6 (Q16659), experiment wp131, direction down), −1.488.

For the compound `NC(=O)c1c(F)cccc1Nc1nc(Nc2ccc(S(=O)(=O)NCCOCCOCCOCCOCCNc3cccc4c3C(=O)N(C3CCC(=O)NC3=O)C4=O)cc2)ncc1Br` (centres unmarked) [TMX.02.138], the logFC in experiment [7] (experiment wp146) and in experiment [7] (setting [9]) was −1.335 each time.

As for `Cc1cc(Nc2ncc(Br)c(Nc3cccc(F)c3C(N)=O)n2)ccc1S(=O)(=O)NCCOCCOCCOCCOCCNc1cccc2c1C(=O)N(C1CCC(=O)NC1=O)C2=O` (centres unmarked) [TMX.02.174], the logFC in experiment [7] (experiment wp146) and in experiment [7] (setting [9]) was −1.763 throughout.

Source of the values: patent US20240269139A1, “COMPOUNDS FOR TARGETED PROTEIN DEGRADATION OF KINASES” (DANA-FARBER CANCER INSTITUTE, INC., priority 2020, published 2024).
